Source: US10221178B2, “Purine inhibitors of human phosphatidylinositol 3-kinase delta” (MERCK SHARP & DOHME CORP., priority 2015, dated 2019)

How the values were obtained:
PI3Kdelta = PI3Kdelta (Homo sapiens (Human), UniProt O00329); experiment: HTRF PI3K biochemical assay, delta isoform; conditions: 0.3 nM enzyme, 100 uM ATP, 5 uM PIP2, form screened: Neutral
Text: (§1) HTRF PI3K Biochemical Assay to Measure Intrinsic Potency of Compound Inhibitors
(§2) The PI3-Kinase biochemical assays were developed to measure the intrinsic potency and compound dependent inhibition of the alpha, beta, delta, and gamma PI3K isoform enzymes.
(§3) This assay was developed and further optimized from a kit produced by Upstate (Millipore catalog #33-047) and has been configured for HTS (high throughput screening) and SAR screening. Briefly, this procedure exploits the exquisite specificity and high affinity binding of enzyme reaction substrate phosphatidyl(3,4,5)triphosphate (PIP3) to the GRP1 pleckstrin homology (PH) domain to generate the signal. In the absence of PIP3, an HTRF (Homogeneous Time-Resolved Fluorescence energy transfer) complex is formed consisting of europium (Eu)-labeled anti-GST, GSTtagged GRP1-PH domain, biotin-PIP3 and streptavidin conjugated APC. The native PIP3 produced by PI3-Kinase activity disrupts in a competitive manner the biotin-PIP3 from the PH domain, resulting in the loss of energy transfer (HTRF complex) and a decrease in the signal. The format of this assay is the same for all 4 isoforms of PI3K; the differences lie in the concentration of enzyme used to achieve robust assay window. The alpha, beta, and delta assays are run at 0.5, 1, and 0.3 nM enzymes and the gamma assay is run at 5 nM enzyme. The ATP concentration is 100 uM in the alpha, beta, and delta assays and 50 uM ATP in the gamma assay. All reactions are run at 5 uM PIP2.
(§4) Compounds are serially diluted (3-fold in 100% DMSO) across a 384-well polypropylene source plated from column 3 to column 12 and column 13 to column 22, to yield 10 concentration dose response for each test compound. Columns 1, 2, 23 and 24 contain either only DMSO or pharmacological known control inhibitor. Once titrations are made, 2.5 nL of the compounds on 384 well plates are reformatted and transferred by acoustic dispense in quadruplicates to a 1536 assay plate (Greiner) to assay across all four PI3K isoform enzymes.
(§5) The PI3-Kinase biochemical assay was optimized using the HTRF kit provided by Upstate (Millipore). The assay kit contains six reagents: 1) 4× Reaction Buffer; 2) native PIP2 (substrate); 3) Stop (EDTA); 4) Detection Mix A (Streptavidin-APC); 5) Detection Mix B (Eu-labeled Anti-GST plus GST-tagged PH-domain); 6) Detection Mix C. In addition, the following items were obtained or purchased; PI3Kinase (alpha 14-602, beta 14-603, gamma 14-558 and delta 14-604 from Upstate; Millipore), dithiothreitol (Sigma, D-5545), Adenosine-5′ triphosphate (InVitrogen, Cat#AS001A), native PIP3 (PI(3,4,5)P3, diC8, H^+, CELLSIGNALS, INC. Cat #907) DMSO (Sigma, 472301).
(§6) PI3Kinase Reaction Buffer is prepared by dilution the stock 1:4 with de-ionized water. DTT, PIP2 and Biotin-PIP3 were added to 1536 assay plate at a final concentration of 5 mM, […] on the day of use. Enzyme addition and compound pre-incubation are initiated by the addition of 1.25 ul of PI3K (at twice its final concentration) in the 1× reaction buffer to all wells using a BioRaptor. Plates are incubated at RT for 15 minutes. Reactions are initiated by addition of 1.25 ul of 2× substrate solution (PIP2 and ATP in 1× reaction buffer) using BioRaptor. Plates are incubated in humidified chamber at RT for one hour. Reactions are quenched by addition of 0.625 uL of stop solution to all wells using the BioRaptor. The quenched reactions are then processed to detect product formation by adding 0.625 uL of Detection Solution to all wells using the BioRaptor (Detection mix C, Detection Mix A, and Detection Mix B combined together in an 18:1:1 ratio prepared 2 hours prior to use). Following a one hour incubation in the dark, the HTRF signal is measured on the Envision plate reader set for 330 nm excitation and dual emission detection at 620 nM (Eu) and 665 nM (APC).

PI3Kalpha = PI3Kalpha (Homo sapiens (Human), UniProt P42336); experiment: HTRF PI3K biochemical assay, alpha isoform (selectivity versus PI3Kalpha); conditions: relative ratio (PI3K-alpha IC50 value/PI3K-delta IC50 value); form screened: Neutral
Text: as §1, §2, §3, §4, §5
as §6, with “[…]. […]” for “(APC).”

PI3Kdelta, sequence (O00329 whole entry, canonical isoform): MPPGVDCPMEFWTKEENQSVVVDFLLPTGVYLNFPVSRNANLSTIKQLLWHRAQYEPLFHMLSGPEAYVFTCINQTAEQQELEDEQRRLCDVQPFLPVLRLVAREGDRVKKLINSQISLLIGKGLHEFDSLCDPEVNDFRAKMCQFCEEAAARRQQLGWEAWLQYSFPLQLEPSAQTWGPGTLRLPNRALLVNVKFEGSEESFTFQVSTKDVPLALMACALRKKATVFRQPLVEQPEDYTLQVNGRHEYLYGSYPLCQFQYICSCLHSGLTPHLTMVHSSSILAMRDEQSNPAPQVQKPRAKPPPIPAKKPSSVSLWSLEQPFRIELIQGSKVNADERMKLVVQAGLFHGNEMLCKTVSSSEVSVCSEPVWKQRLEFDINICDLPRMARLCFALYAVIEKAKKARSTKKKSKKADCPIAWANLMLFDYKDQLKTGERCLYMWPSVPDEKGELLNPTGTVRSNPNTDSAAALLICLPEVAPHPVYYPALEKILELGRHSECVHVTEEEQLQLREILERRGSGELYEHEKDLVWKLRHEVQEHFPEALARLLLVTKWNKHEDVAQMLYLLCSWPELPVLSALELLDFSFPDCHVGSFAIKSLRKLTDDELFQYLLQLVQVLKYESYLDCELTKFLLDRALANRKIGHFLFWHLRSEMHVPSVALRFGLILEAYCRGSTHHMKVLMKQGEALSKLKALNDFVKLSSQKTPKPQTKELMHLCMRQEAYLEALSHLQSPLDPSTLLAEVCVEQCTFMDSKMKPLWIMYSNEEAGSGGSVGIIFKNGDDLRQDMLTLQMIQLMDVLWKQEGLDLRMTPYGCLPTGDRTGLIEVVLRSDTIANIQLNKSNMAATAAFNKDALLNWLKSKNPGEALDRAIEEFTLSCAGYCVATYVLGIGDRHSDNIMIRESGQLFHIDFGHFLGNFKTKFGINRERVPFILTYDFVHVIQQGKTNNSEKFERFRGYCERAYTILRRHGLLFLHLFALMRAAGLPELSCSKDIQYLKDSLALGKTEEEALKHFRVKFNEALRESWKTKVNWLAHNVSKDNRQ
PI3Kdelta, sequence (P27986 whole entry partner, canonical isoform): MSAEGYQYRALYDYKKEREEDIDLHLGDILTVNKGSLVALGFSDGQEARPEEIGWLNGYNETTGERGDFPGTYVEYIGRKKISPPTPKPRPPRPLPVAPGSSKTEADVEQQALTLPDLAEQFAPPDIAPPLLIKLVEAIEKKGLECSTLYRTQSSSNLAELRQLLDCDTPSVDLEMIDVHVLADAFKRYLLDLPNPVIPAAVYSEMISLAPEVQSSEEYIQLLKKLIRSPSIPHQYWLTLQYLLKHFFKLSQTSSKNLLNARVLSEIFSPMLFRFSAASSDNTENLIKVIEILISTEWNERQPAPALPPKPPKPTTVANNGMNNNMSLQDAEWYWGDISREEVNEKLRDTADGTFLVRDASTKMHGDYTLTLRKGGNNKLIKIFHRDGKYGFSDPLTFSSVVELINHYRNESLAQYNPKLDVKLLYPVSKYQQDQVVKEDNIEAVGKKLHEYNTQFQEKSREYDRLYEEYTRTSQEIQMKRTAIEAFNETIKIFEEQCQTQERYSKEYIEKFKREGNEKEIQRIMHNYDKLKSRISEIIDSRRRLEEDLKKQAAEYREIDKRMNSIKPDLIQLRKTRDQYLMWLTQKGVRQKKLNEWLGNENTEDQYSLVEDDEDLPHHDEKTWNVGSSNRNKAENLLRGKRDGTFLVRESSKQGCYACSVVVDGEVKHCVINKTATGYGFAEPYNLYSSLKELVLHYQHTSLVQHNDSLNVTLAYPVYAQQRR
PI3Kalpha, sequence (P42336 whole entry, canonical isoform): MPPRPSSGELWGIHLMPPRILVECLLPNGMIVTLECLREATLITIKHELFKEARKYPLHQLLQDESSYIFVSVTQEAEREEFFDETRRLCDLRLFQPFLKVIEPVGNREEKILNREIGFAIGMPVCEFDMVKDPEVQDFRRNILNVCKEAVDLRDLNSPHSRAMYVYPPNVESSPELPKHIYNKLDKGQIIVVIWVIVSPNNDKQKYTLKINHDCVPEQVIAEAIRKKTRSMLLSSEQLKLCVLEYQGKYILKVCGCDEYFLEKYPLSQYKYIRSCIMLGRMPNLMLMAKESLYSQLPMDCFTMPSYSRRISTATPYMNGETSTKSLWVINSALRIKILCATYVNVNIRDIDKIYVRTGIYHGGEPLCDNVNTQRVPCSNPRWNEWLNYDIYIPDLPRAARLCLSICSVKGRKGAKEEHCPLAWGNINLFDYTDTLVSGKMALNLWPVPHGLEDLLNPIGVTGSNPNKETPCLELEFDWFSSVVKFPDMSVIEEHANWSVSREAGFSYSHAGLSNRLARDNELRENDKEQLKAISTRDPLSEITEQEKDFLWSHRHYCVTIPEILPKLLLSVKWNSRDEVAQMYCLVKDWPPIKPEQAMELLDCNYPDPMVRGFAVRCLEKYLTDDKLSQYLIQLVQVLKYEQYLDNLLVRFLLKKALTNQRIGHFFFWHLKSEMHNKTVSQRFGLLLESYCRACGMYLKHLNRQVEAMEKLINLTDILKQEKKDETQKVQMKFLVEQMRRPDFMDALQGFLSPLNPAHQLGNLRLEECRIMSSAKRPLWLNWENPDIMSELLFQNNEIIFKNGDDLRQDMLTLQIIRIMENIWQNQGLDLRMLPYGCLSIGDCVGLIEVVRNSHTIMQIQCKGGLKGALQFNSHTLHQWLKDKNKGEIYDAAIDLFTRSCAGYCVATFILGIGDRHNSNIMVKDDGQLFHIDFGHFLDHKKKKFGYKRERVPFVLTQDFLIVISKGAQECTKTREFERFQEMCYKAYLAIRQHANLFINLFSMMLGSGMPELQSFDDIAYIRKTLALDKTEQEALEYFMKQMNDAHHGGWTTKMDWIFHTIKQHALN
PI3Kalpha, sequence (P27986 whole entry partner, canonical isoform): as the sequence (P27986 whole entry partner, canonical isoform) above

IC50 (PI3Kdelta) [nM]	Selectivity versus PI3Kalpha (PI3Kalpha)	SMILES
14	>10	CC[C@H](Nc1ncnc2c1nc(-c1cnc(C)nc1)n2CC)C(=O)N1CC[C@@H]2CCCC[C@@H]2C1 [Compound 2-20, 9-ethyl-8-(2-methylpyrimidin-5-yl)-N-{(1S)-1-[(cis)-octahydroisoquinolin-2(1H)-ylcarbonyl]propyl}-9H-purin-6-amine]
610	>10	CCn1c(-c2cnc(C)nc2)nc2c(N[C@H](CC(=O)N3C[C@@H](C)O[C@@H](C)C3)c3ccccc3)ncnc21 [Compound 2-56, N-{(1R)-3-[(cis)-2,6-dimethylmorpholin-4-yl]-3-oxo-1-phenylpropyl}-9-ethyl-8-(2-methylpyrimidin-5-yl)-9H-purin-6-amine]
230	>10	CCn1c(C(F)F)nc2c(N[C@@H](C)C(=O)N3C[C@@H](C)O[C@@H](C)C3)ncnc21 [Compound 2-5, 8-(difluoromethyl)-N-{(1S)-2-[(cis)-2,6-dimethylmorpholin-4-yl]-1-methyl-2-oxoethyl}-9-ethyl-9H-purin-6-amine]
5.3	>10	CCn1c(-c2cnc(C)nc2)nc2c(N[C@H](C(=O)N3C[C@@H](C)O[C@@H](C)C3)C(C)(C)C)ncnc21 [Compound 2-42, N-[(1S)-1-{[(cis)-2,6-dimethylmorpholin-4-yl]carbonyl}-2,2-dimethylpropyl]-9-ethyl-8-(2-methylpyrimidin-5-yl)-9H-purin-6-amine]
37	>10	CC[C@H](Nc1ncnc2c1nc(-c1cnc(C)nc1)n2CC)C(=O)N1CC[C@H](F)C1 [Compound 2-15, 9-ethyl-N-[(1S)-1-{[(3S)-3-fluoropyrrolidin-1-yl]carbonyl}propyl]-8-(2-methylpyrimidin-5-yl)-9H-purin-6-amine]
19	>10	CC[C@H](Nc1ncnc2c1nc(-c1cnc(C)nc1)n2CC)C(=O)N1CC(=O)NC(C)(C)C1 [Compound 4-7, 4-[(2S)-2-{[9-ethyl-8-(2-methylpyrimidin-5-yl)-9H-purin-6-yl]amino}butanoyl]-6,6-dimethylpiperazin-2-one]
15	>10	CCn1ncc(-c2nc3c(N[C@H](Cc4ccccc4)C(=O)N4CCOCC4)ncnc3n2C)c1C [Compound 2-1, N-[(1R)-1-benzyl-2-morpholin-4-yl-2-oxoethyl]-8-(1-ethyl-5-methyl-1H-pyrazol-4-yl)-9-methyl-9H-purin-6-amine]
7	>10	CC[C@H](Nc1ncnc2c1nc(-c1cnc(C)nc1)n2CC)C(=O)N1CC2CCS(=O)(=O)C2C1 (mixture of isomers) [Compound 2-14, N-{(1S)-1-[((3a(R and S), 6a(R and S)-1,1-dioxidohexahydro-5H-thieno[2,3-c]pyrrol-5-yl)carbonyl]propyl}-9-ethyl-8-(2-methylpyrimidin-5-yl)-9H-purin-6-amine]
6.1	>10	CC[C@H](Nc1ncnc2c1nc(-c1cnc(C)nc1)n2CC)C(=O)N1CC(=O)N(C)C(C)C1 (single isomer, unassigned) [Compound 4-5, (S or R)-4-[(2S)-2-{[9-ethyl-8-(2-methylpyrimidin-5-yl)-9H-purin-6-yl]amino}butanoyl]-1,6-dimethylpiperazin-2-one]
11	>10	CC[C@H](Nc1ncnc2c1nc(-c1cnc(C)nc1)n2CC)C(=O)N1CCOC2(CC2)C1 [Compound 2-29, 9-ethyl-8-(2-methylpyrimidin-5-yl)-N-[(1S)-1-(4-oxa-7-azaspiro[2.5]oct-7-ylcarbonyl)propyl]-9H-purin-6-amine]
26	>10	CC[C@H](Nc1ncnc2c1nc(-c1cnc(C)nc1)n2CC)C(=O)N1CCC(C#N)CC1 [Compound 2-13, 1-[(2S)-2-{[9-ethyl-8-(2-methylpyrimidin-5-yl)-9H-purin-6-yl]amino}butanoyl]piperidine-4-carbonitrile]
38	>10	CCC(Nc1ncnc2c1nc(-c1cnc(C)nc1)n2CC)C(=O)N1CCn2c(CC(C)C)nnc2C1 (single isomer, unassigned) [Compound 5-1, (S or R)-9-ethyl-N-(1-{[3-(2-methylpropyl)-5,6-dihydro[1,2,4]triazolo[4,3-a]pyrazin-7(8H)-yl]carbonyl}propyl)-8-(2-methylpyrimidin-5-yl)-9H-purin-6-amine]
4.1	>10	CCn1c(-c2cnc(C)nc2)nc2c(N[C@H](C(=O)N3C[C@@H](C)O[C@@H](C)C3)C3CC3)ncnc21 [Compound 2-40, N-{(1S)-1-cyclopropyl-2-[(cis)-2,6-dimethylmorpholin-4-yl]-2-oxoethyl}-9-ethyl-8-(2-methylpyrimidin-5-yl)-9H-purin-6-amine]
27	>10	CC[C@H](Nc1ncnc2c1nc(-c1cnc(C)nc1)n2CC)C(=O)N1CCSC1C (mixture of isomers) [Compound 2-24, 9-ethyl-8-(2-methylpyrimidin-5-yl)-N-{(1S)-1-[((S and R)-2-methyl-1,3-thiazolidin-3-yl)carbonyl]propyl}-9H-purin-6-amine]
8.7	>10	CCn1c(-c2cnc(C)nc2)nc2c(N[C@H](C(=O)N3C[C@@H](C)O[C@@H](C)C3)C(C)(C)O)ncnc21 [Compound 2-50, (3S)-4-[(cis)-2,6-dimethylmorpholin-4-yl]-3-{[9-ethyl-8-(2-methylpyrimidin-5-yl)-9H-purin-6-yl]amino}-2-methyl-4-oxobutan-2-ol]
5.2	>10	CCn1c(-c2cnc(C)nc2)nc2c(NC(C(=O)N3C[C@@H](C)O[C@@H](C)C3)C3CC3)ccnc21 (single isomer, unassigned) [Compound 3-4, N-{(R or S)-1-cyclopropyl-2-[(cis)-2,6-dimethylmorpholin-4-yl]-2-oxoethyl}-3-ethyl-2-(2-methylpyrimidin-5-yl)-3H-imidazo[4,5-b]pyridin-7-amine]
8.6	>10	CCn1c(-c2cnc(C)nc2)nc2c(N[C@H](C(=O)N3C[C@@H](C)O[C@@H](C)C3)[C@@H](C)OC)ccnc21 [Compound 3-3, N-[(1S,2R)-1-{[(cis)-2,6-dimethylmorpholin-4-yl]carbonyl}-2-methoxypropyl]-3-ethyl-2-(2-methylpyrimidin-5-yl)-3H-imidazo[4,5-b]pyridin-7-amine]
